Data published in patent US9708628B2, “Cationic lipid having improved intracellular kinetics” (NOF CORPORATION, priority 2011, dated 2017).

Tests used:
[1] = Electron microscope observation by staining method; type: physicochemical; details: phosphotungstic acid staining
Procedure: MENDs of B-2 (Example 1) and B-2-4 (Example 4) were prepared according to [Experimental Example 1] (1), (2) and [Experimental Example 15]. For the preparation, PEG2000-DMG was used as PEG lipid, and MEND solutions corresponding to 1.38 mM of the lipid concentration were prepared. A 50% sucrose solution (pH 5.3) (5 mL) was added to a centrifugation tube, on which a 10% sucrose solution (pH 5.3) (5 mL) was layered, and a MEND solution (1.5 mL) was further overlaid to form an discontinuous density gradient. Purification was performed by ultracentrifugation (110000 g, 2 h, 25° C.) (Optima™ L-90K Ultracentrifuge, Sw41Ti, BECKMAN). The interface (4 ml) of sucrose density 10% and 50% was recovered, and sucrose was removed by ultrafiltration (1000 g, 3 min, 25° C.) to give a sample solution. A 2-fold diluted sample solution was adsorbed to a 400 mesh carbon film TEM grid, which was absorbed by a filter paper. A 2% phosphotungstic acid solution (pH 7.0) was added and the mixture was stood for 10 seconds. For observation, a transmission electron microscope (JEM-1200EX, JEOL Ltd.) was used. Accelerating voltage was set to 80 kV, and images were taken by a CCD camera (VELETA, JEOL Ltd.).

HT1080 cells [2] = assay: Influence of endosomal acidification inhibitor BafA1 (Kronos Dio); type: cell-based; details: 0.5 μM BafA1
Procedure: MENDs of B-2-4 (Example 4), B-2 (Example 1) were prepared according to [Experimental Example 1] (1), (2), [Experimental Example […]]. For the preparation, PEG2000-DMG was used as PEG lipid, and MEND solutions corresponding to 0.55 mM of the lipid concentration were prepared.
HT1080 cells were plated on a 3.5 cm cell culture dish at 4×10^4 cells/2 mL/dish 24 hr before. The medium was changed to DMEM (FBS 10%+) containing 0.5 μM BafA1 (Bafilomycin A1) 30 min before transfection. 30 min later, various MENDs were added to the dish at 1.6 μg/2 mL/dish based on the pDNA amount. 3 hr after the transfection, the medium was changed to DMEM (FBS 10%+, Phenol red free) containing a final concentration 200 μM of D-luciferin potassium. According to the Kronos Dio package insert, the luminescence amount was measured for 2 min every 20 min and taken as the luciferase activity (RLU/2 min).

HT1080 cells [3] = assay: Intracellular uptake amount of MEND (NBD-DOPE labeled lipid, FACS); type: cell-based; details: NBD-DOPE label, lipid 27.5 nmol/well, 1 hr, DMEM (FBS+)
Procedure: Using B-2 (Example 1), B-2-1 (Comparative Example 1), and DODAP (Comparative Example 2) as cationic lipids, MENDs having a composition of cationic lipid:SOPE:Chol=3:4:3 were prepared by the method described in [Experimental Example 1] (2). For the preparation, PEG2000DSG was used as PEG lipid, and MEND solutions corresponding to 0.55 mM of the lipid concentration were prepared. For cationic MEND, lipids having a composition of DOTAP (Comparative Example 3):DOPE:Chol:=3:4:3 were used, and the cationic MEND was prepared according to the method described in [Experimental Example 1] (3). The lipids of various MENDs were labeled with fluorescence according to the method described in [Experimental Example 1] (5).
HT1080 cells were plated on a 6-well plate at 2×10^5 cells/2 mL/well 24 hr before, various sample MENDs were diluted with DMEM (FBS+) to a lipid concentration of 27.5 nmol/l mL/well and transfected into the well. After 1 hr, MEND-containing DMEM was removed, and the cells were washed twice with heparin (20 units/mL, 1 mL), and further once with PBS(−) (1 mL). 0.05% Trypsin solution (500 μL) was added, and the mixture was stood in an incubator at 37° C. for 3 min. […] The suspension was passed through a 44 μm nylon mesh immediately before the measurement, and the fluorescence intensity of intracellular NBD was measured.

[4] = system: Rabbit Reticulocyte Lysate Systems; assay: Influence on in vitro translation reaction (luciferase mRNA); type: biochemical; details: MEND 0.0625-0.25 μg per 1 μL mRNA solution, 30° C., 90 min
Procedure: MENDs having a composition of B-2:SOPE:Chol=5:3:2 were prepared by the method described in [Experimental Example 1] (2). For the preparation, PEG2000-DMG was used as PEG lipid, and MEND solutions corresponding to 0.55 mM of the lipid concentration were prepared. For cationic MEND, lipids having a composition of DOTAP:DOPE:Chol:=3:4:3 were used, and the cationic MEND was prepared according to the method described in [Experimental Example 1] (3).
Luciferase-mRNA solution was diluted to 0.005 μg/μL. Various MEND solutions were added in 0.0625, 0.125, 0.25 μg relative to 1 μL of mRNA solution to adjust the total amount to 6.5 μL. A mixture of RRL (Rabbit Reticulocyte Lysate, 17.5 μL), AAM (Amino Acid Mixture)-Met (0.25 μL), AAM-Leu (0.25 μL), and RRI (Recombinant RNase Inhibitor, 0.5 μL) was added, and the mixture was stood at 30° C. for 90 min.
10 μL thereof was mixed with a Luciferase assay substrate (50 μL), and the luciferase activity in a given time was measured by a luminometer. […] Thereafter, the absorbance at 562 nm was measured, and the protein amount of the sample was calculated from the absorbance of a BSA solution having a known concentration. The luciferase activity (RLU) was adjusted by dividing with protein amount (mg), and the luciferase activity per cellular protein amount (RLU/mg protein) was calculated.

Row | SMILES | structure of MEND by transmission electron microscope [1] | activity under endosomal acidification inhibition using BafA1 (HT1080 cells [2]) | intracellular uptake amount of MEND (HT1080 cells [3]) | inhibitory effect on in vitro translation reaction [4]
1 | CC1=C(/C=C/C(C)=C/C=C/C(C)=C/C(=O)OCCCN(C)CCSSCCN(C)CCCOC(=O)/C=C(C)/C=C/C=C(C)/C=C/C2=C(C)CCCC2(C)C)C(C)(C)CCC1 [Example B-2-4] | structure coated with a monolayer lipid membrane | inhibited |  | 
2 | CCCCCCCC/C=C\CCCCCCCC(=O)OCC(CN(C)C)OC(=O)CCCCCCC/C=C\CCCCCCCC (centres unmarked) [DODAP, reference compound] |  |  | extremely low as compared to the MENDs using B-2-1 and DOTAP | 
3 | CCCCCCCC/C=C\CCCCCCCC(=O)OCC(C[N+](C)(C)C)OC(=O)CCCCCCC/C=C\CCCCCCCC (centres unmarked) [DOTAP, reference compound] |  |  |  | significant inhibitory effect
4 | CCCCCCCCCCCCCC(=O)OCCCN(C)CCSSCCN(C)CCCOC(=O)CCCCCCCCCCCCC [Example B-2] | structure coated with a monolayer lipid membrane | inhibited | extremely low as compared to the MENDs using B-2-1 and DOTAP | not observed
